The values below come from ChEMBL document CHEMBL5512623, “Discovery of the novel and potent histamine H1 receptor antagonists for treatment of allergic diseases” (Eur J Med Chem, 2024).

The target of series [1] is Muscarinic acetylcholine receptor M3 (Homo sapiens, UniProt P20309). In words: Antagonist activity at human muscarinic M3 receptor expressed in PathHunter U2OS CHRM3 beta-arrestin cells preincubated for 30 mins followed by agonist addition at 6 times EC80 and measured after 90 to 180 mins by PathHunter assay. Format: functional, cell-based.
Chain of Muscarinic acetylcholine receptor M3 (P20309 whole entry): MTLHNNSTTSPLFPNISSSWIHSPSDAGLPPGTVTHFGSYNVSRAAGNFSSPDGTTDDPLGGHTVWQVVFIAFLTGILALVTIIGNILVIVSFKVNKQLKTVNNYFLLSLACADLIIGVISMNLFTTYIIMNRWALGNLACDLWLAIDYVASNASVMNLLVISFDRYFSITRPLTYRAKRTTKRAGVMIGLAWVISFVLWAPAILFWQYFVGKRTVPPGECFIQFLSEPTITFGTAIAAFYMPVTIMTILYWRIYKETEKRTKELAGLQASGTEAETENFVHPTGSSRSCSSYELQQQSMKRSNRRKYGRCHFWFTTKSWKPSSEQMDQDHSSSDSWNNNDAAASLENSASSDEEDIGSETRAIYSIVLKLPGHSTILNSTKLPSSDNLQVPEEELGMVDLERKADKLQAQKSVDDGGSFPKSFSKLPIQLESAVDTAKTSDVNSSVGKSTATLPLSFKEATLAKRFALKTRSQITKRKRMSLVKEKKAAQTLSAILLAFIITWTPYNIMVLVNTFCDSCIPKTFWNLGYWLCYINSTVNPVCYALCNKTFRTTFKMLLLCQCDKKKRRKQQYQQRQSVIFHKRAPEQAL
In series [2] the target is Voltage-gated inwardly rectifying potassium channel KCNH2 (Homo sapiens, UniProt Q12809). The series is described as follows: Inhibition of hERG in HEK293 cells measured after 5 mins by patch-clamp assay.
Chain of Voltage-gated inwardly rectifying potassium channel KCNH2 (Q12809 whole entry): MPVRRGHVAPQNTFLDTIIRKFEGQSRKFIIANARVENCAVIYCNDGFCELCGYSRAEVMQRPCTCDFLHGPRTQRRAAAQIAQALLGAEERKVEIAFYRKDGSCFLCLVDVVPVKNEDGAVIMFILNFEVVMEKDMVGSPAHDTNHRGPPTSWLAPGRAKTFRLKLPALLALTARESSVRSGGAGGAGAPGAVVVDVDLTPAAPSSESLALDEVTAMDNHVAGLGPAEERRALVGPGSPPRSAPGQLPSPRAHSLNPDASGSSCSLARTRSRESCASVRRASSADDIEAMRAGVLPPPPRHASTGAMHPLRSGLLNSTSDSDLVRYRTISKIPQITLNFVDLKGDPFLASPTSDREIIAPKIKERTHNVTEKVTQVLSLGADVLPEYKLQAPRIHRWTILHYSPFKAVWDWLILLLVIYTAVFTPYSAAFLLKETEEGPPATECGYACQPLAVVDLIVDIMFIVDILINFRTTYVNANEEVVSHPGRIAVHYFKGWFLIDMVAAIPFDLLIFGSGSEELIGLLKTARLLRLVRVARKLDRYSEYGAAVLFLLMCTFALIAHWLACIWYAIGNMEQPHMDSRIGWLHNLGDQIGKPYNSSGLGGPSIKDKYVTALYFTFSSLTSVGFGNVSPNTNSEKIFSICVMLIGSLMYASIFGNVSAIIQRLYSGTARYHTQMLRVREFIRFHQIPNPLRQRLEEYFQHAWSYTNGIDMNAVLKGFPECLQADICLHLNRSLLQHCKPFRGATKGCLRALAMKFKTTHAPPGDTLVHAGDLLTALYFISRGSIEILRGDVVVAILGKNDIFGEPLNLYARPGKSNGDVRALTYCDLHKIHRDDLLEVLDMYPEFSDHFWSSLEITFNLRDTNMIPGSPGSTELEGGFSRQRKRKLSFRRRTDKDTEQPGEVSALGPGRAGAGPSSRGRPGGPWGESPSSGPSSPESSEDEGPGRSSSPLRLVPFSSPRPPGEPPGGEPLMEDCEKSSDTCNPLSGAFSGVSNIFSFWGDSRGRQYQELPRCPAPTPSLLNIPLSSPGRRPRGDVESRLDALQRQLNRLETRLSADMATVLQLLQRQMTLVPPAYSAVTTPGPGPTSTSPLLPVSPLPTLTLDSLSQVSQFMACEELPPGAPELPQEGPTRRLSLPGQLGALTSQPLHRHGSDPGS
In series [3] the target is Histamine H1 receptor (Homo sapiens, UniProt P35367). The series is described as follows: Antagonist activity at human H1 receptor expressed in PathHunter CHO-K1 HRH1 beta-arrestin cells preincubated for 30 mins followed by agonist addition at 6 times EC80 and measured after 90 to 180 mins by PathHunter assay. It counts as functional, cell-based.
Chain of Histamine H1 receptor (P35367 whole entry): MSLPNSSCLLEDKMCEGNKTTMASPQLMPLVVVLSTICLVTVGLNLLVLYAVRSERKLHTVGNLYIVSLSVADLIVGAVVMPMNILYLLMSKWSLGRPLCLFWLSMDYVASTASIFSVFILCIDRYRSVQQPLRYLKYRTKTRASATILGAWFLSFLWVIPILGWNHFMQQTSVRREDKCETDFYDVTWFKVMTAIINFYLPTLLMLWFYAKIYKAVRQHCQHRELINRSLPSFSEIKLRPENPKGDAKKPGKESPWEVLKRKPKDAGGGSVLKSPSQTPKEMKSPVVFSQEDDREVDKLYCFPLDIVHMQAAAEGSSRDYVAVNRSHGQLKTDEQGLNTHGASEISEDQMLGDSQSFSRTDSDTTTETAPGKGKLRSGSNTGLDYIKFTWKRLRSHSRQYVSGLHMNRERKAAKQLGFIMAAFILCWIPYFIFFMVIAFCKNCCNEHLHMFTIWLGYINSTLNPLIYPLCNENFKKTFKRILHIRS
The nature of series [4]: Cmax in female Sprague-Dawley rat plasma at 10 mg/kg, IG administered as single dose. Format: ADME, organism-based. The settings on record: po.
Series [5] can be described thus: Cmax in male Sprague-Dawley rat brain at 10 mg/kg, IG administered as single dose. Format: ADME, organism-based. The settings on record: po.
A short description of series [6]: Cmax in male Sprague-Dawley rat plasma at 10 mg/kg, IG administered as single dose. The conditions noted are these: po. Format: ADME, organism-based.
A short description of series [7]: Cmax in female Sprague-Dawley rat brain at 10 mg/kg, IG administered as single dose. The conditions noted are these: po. It counts as ADME, organism-based.
A short description of series [8]: Apparent permeability across basolateral to apical side in human Caco-2 cells at 5 uM measured at 60 mins. Format: ADME, cell-based. Background: Caco-2 cells form a polarised layer with tight junctions and transporters.
The nature of series [9]: Efflux ratio of apparent permeability across basolateral to apical over apical to basolateral side in human Caco-2 cells at 5 uM measured at 60 mins. Format: ADME, cell-based.
Series [10] in a line: Apparent permeability across apical to basolateral side in human Caco-2 cells at 5 uM measured at 60 mins. Format: ADME, cell-based.

A word on the IC50: it is the concentration at which inhibition is half-maximal. A lower IC50 goes with greater potency. As usually defined, the Cmax is the peak of the concentration-time curve. For orientation: Papp B→A means how fast a substance crosses the layer from the basolateral side. The efflux ratio is a quotient of directional permeabilities that is used to spot active efflux. The term Papp A→B denotes how fast a substance crosses the layer from the apical side.

On to `O=C(CCO)N1CCC(=C2c3ccc(Cl)cc3CCc3cccnc32)CC1`, for which, in series [1], the IC50 is over 10 µM.

As for `CC(C)(C(=O)O)c1ccc(CCN2CCC(=C3c4ccc(Cl)cc4CCc4cccnc43)CC2)cc1`, the IC50 in series [2] was over 30 µM; in series [1], over 10 µM. Regarding `CC(C)(C(=O)O)c1cccc(CC(O)CN2CCC(=C3c4ccc(Cl)cc4CCc4cccnc43)CC2)c1` (centres undefined), the IC50 in series [3] is 57.2 nM; in series [1] it was over 10 µM. Consider `O=C(O)CC(O)CN1CCC(=C2c3ccc(Cl)cc3CCc3cccnc32)CC1` (centres undefined), for which the IC50 in [3] was 126 nM; in series [2] it was over 30 µM; in [1], over 10 µM. Consider `CC(C)(C(=O)O)c1ccc(CCCN2CCC(=C3c4ccc(Cl)cc4CCc4cccnc43)CC2)cc1`, for which the IC50 in [2] was over 30 µM; in series [1] it was over 10 µM. Turning to `OC[C@H](O)CN1CCC(=C2c3ccc(Cl)cc3CCc3cccnc32)CC1`, the values for the IC50 in series [2] and in series [1] were 2.64 µM and over 10 µM, respectively. In turn, `O=C(O)c1ccc(CCCN2CCC(=C3c4ccc(Cl)cc4CCc4cccnc43)CC2)cc1` registered an IC50 in series [1] of over 10 µM. As to `CC(C)(C(=O)O)c1cccc(NCCN2CCC(=C3c4ccc(Cl)cc4CCc4cccnc43)CC2)c1`, in [1], the concentration for half-maximal inhibition (IC50) was over 10 µM. On to `CC(C)(C(=O)O)c1ccc(CN2CCC(=C3c4ccc(Cl)cc4CCc4cccnc43)CC2)cc1`, for which the IC50 in series [2] is 18.4 µM; in series [1], over 10 µM. Molecule `CC(C)(C(=O)O)c1ccc(CCCN2CCC(=C3c4ccc(Cl)cc4CCc4cccnc43)CC2)nc1` registered an IC50 in series [1] of over 10 µM. In the case of `NC(=O)c1cn(CCN2CCC(=C3c4ccc(Cl)cc4CCc4cccnc43)CC2)nn1`, the IC50 was 6.36 µM in [2] and over 10 µM in [1]. As for `CC(C)(C(=O)O)c1ccccc1CCCN1CCC(=C2c3ccc(Cl)cc3CCc3cccnc32)CC1`, in [1], the IC50 is over 10 µM. For the molecule `CC(C)(C(=O)O)c1ccc(CCCN2CCC(=C3c4ccc(Cl)cc4CCc4cccnc43)CC2)c(F)c1`, the IC50 in series [2] was 30.1 µM; in [1] it was over 10 µM.

`Clc1ccc2c(c1)CCc1cccnc1C2=C1CCNCC1` [DESLORATADINE]: the Cmax stood at 549 ng/g in [4], 843 ng/g in [5], 112 ng/g in series [6] and 1180 ng/g in series [7]. Consider `CC(C)NCC(O)COc1cccc2ccccc12` (centres undefined) [PROPRANOLOL], for which the Papp B→A at 1 h, 5 µM in [8] stood at 20.5 ×10⁻⁶ cm/s. For the same molecule, the efflux ratio at 1 h, 5 µM in series [9] was determined as 0.59. For the same molecule, in series [10], the Papp A→B at 1 h, 5 µM was 34.8 ×10⁻⁶ cm/s.
